Converted amounts (≈) assume the structure as drawn.
What was measured:
Type in all cases: functional
[1] = tested on: Staphylococcus aureus; assay: Antibacterial activity against methicillin susceptible staphylococcus aureus ATCC 29213 at 10 % serum
[2] = tested on: Enterococcus faecium; assay: Antibacterial activity against Enterococcus faecium ATCC 49452 at 0 % serum
[3] = tested on: Enterococcus faecalis; assay: Antibacterial activity against Enterococcus faecalis ATCC 6569 at 10 % serum; settings: ATCC 6569, Serum
[4] = tested on: Enterococcus faecium; assay: Antibacterial activity against Enterococcus faecium ATCC 49452 at 10 % serum; settings: ATCC 49452, Serum
[5] = tested on: Staphylococcus aureus; assay: Antibacterial activity against methicillin susceptible staphylococcus aureus ATCC 29213 at 0 % serum
[6] = tested on: Staphylococcus aureus; assay: Antibacterial activity against methicillin-resistant staphylococcus aureus ATCC 43300 at 0 % serum
[7] = tested on: Enterococcus faecalis; assay: Antibacterial activity against Enterococcus faecalis ATCC 6569 at 0 % serum
[8] = tested on: Staphylococcus aureus; assay: Antibacterial activity against methicillin-resistant staphylococcus aureus ATCC 43300 at 10 % serum

**Q.** For `CCCCCCCCCC(=O)N[C@@H](Cc1c[nH]c2ccccc12)C(=O)N[C@H](CC(N)=O)C(=O)N[C@@H](CCO)C(=O)N[C@@H]1C(=O)NCC(=O)N[C@@H](CCCNCc2ccccc2[N+](=O)[O-])C(=O)N[C@@H](CC(=O)O)C(=O)N[C@H](C)C(=O)N[C@@H](CC(=O)O)C(=O)NCC(=O)N[C@H](CO)C(=O)N[C@@H]([C@H](C)CC(=O)O)C(=O)N[C@@H](CC(=O)c2ccccc2N)C(=O)O[C@@H]1C`, which MIC [1] is on record?
**A.** 1.56 µg/mL (≈ 0.896 µM)

**Q.** And the MIC [2]?
**A.** 12.5 µg/mL (≈ 7.18 µM)

**Q.** What about the MIC [3] of the same compound?
**A.** 25 µg/mL (≈ 14.4 µM)

**Q.** And the MIC [4]?
**A.** 25 µg/mL (≈ 14.4 µM)

**Q.** And the MIC [5]?
**A.** 0.78 µg/mL (≈ 0.448 µM)

**Q.** What about the MIC [6] of the same compound?
**A.** 0.78 µg/mL (≈ 0.448 µM)

**Q.** And the MIC [7]?
**A.** 12.5 µg/mL (≈ 7.18 µM)

**Q.** And the MIC [8]?
**A.** 0.78 µg/mL (≈ 0.448 µM)

**Q.** Which results are given for `CCCCCCCCCC(=O)N[C@@H](Cc1c[nH]c2ccccc12)C(=O)N[C@H](CC(N)=O)C(=O)N[C@@H](CCO)C(=O)N[C@@H]1C(=O)NCC(=O)N[C@@H](CCCNCc2ccc(S(=O)(=O)N3CCN(c4ccccc4)CC3)cc2)C(=O)N[C@@H](CC(=O)O)C(=O)N[C@H](C)C(=O)N[C@@H](CC(=O)O)C(=O)NCC(=O)N[C@H](CO)C(=O)N[C@@H]([C@H](C)CC(=O)O)C(=O)N[C@@H](CC(=O)c2ccccc2N)C(=O)O[C@@H]1C`?
**A.** MIC [1]: 3.13 µg/mL (≈ 1.63 µM); MIC [2]: 1.56 µg/mL (≈ 0.812 µM); MIC [3]: 6.25 µg/mL (≈ 3.25 µM); MIC [4]: 12.5 µg/mL (≈ 6.51 µM); MIC [5]: 0.39 µg/mL (≈ 0.203 µM); MIC [6]: 0.78 µg/mL (≈ 0.406 µM); MIC [7]: 0.78 µg/mL (≈ 0.406 µM); MIC [8]: 0.78 µg/mL (≈ 0.406 µM)

**Q.** How did the MIC [1] turn out when `CCCCCCCCCC(=O)N[C@@H](Cc1c[nH]c2ccccc12)C(=O)N[C@H](CC(N)=O)C(=O)N[C@@H](CCO)C(=O)N[C@@H]1C(=O)NCC(=O)N[C@@H](CCCNCc2ccc(OCc3ccccc3)cc2O)C(=O)N[C@@H](CC(=O)O)C(=O)N[C@H](C)C(=O)N[C@@H](CC(=O)O)C(=O)NCC(=O)N[C@H](CO)C(=O)N[C@@H]([C@H](C)CC(=O)O)C(=O)N[C@@H](CC(=O)c2ccccc2N)C(=O)O[C@@H]1C` was run?
**A.** 25 µg/mL (≈ 13.7 µM)

**Q.** And the MIC [2]?
**A.** 6.25 µg/mL (≈ 3.44 µM)

**Q.** What about the MIC [3] of the same compound?
**A.** 50 µg/mL (≈ 27.5 µM)

**Q.** What about the MIC [4] of the same compound?
**A.** 100 µg/mL (≈ 55 µM)

**Q.** What about the MIC [5] of the same compound?
**A.** 3.13 µg/mL (≈ 1.72 µM)

**Q.** What about the MIC [6] of the same compound?
**A.** 1.56 µg/mL (≈ 0.858 µM)

**Q.** What about the MIC [7] of the same compound?
**A.** 1.56 µg/mL (≈ 0.858 µM)

**Q.** What about the MIC [8] of the same compound?
**A.** 12.5 µg/mL (≈ 6.87 µM)

**Q.** How did the MIC [1] turn out when `CCCCCCCCCC(=O)N[C@@H](Cc1c[nH]c2ccccc12)C(=O)N[C@H](CC(N)=O)C(=O)N[C@@H](CCO)C(=O)N[C@@H]1C(=O)NCC(=O)N[C@@H](CCCNCc2ccccc2F)C(=O)N[C@@H](CC(=O)O)C(=O)N[C@H](C)C(=O)N[C@@H](CC(=O)O)C(=O)NCC(=O)N[C@H](CO)C(=O)N[C@@H]([C@H](C)CC(=O)O)C(=O)N[C@@H](CC(=O)c2ccccc2N)C(=O)O[C@@H]1C` was run?
**A.** 1.56 µg/mL (≈ 0.91 µM)

**Q.** And the MIC [2]?
**A.** 6.25 µg/mL (≈ 3.64 µM)

**Q.** And the MIC [3]?
**A.** 12.5 µg/mL (≈ 7.29 µM)

**Q.** And the MIC [4]?
**A.** 12.5 µg/mL (≈ 7.29 µM)

**Q.** And the MIC [5]?
**A.** 0.78 µg/mL (≈ 0.455 µM)

**Q.** And the MIC [6]?
**A.** 0.78 µg/mL (≈ 0.455 µM)

**Q.** What about the MIC [7] of the same compound?
**A.** 6.25 µg/mL (≈ 3.64 µM)

**Q.** What about the MIC [8] of the same compound?
**A.** 0.78 µg/mL (≈ 0.455 µM)

**Q.** `CCCCCCCCCC(=O)N[C@@H](Cc1c[nH]c2ccccc12)C(=O)N[C@H](CC(N)=O)C(=O)N[C@@H](CCO)C(=O)N[C@@H]1C(=O)NCC(=O)N[C@@H](CCCNCc2ccc(/C=C/C(=O)N3CCN(c4ccc(Cl)c(Cl)c4)CC3)cc2)C(=O)N[C@@H](CC(=O)O)C(=O)N[C@H](C)C(=O)N[C@@H](CC(=O)O)C(=O)NCC(=O)N[C@H](CO)C(=O)N[C@@H]([C@H](C)CC(=O)O)C(=O)N[C@@H](CC(=O)c2ccccc2N)C(=O)O[C@@H]1C` was tested. Which MIC [1] did it give?
**A.** 12.5 µg/mL (≈ 6.31 µM)

**Q.** What about the MIC [2] of the same compound?
**A.** 1.56 µg/mL (≈ 0.788 µM)

**Q.** And the MIC [3]?
**A.** 50 µg/mL (≈ 25.3 µM)

**Q.** What about the MIC [4] of the same compound?
**A.** 50 µg/mL (≈ 25.3 µM)

**Q.** What about the MIC [5] of the same compound?
**A.** 0.78 µg/mL (≈ 0.394 µM)

**Q.** What about the MIC [6] of the same compound?
**A.** 0.78 µg/mL (≈ 0.394 µM)

**Q.** What about the MIC [7] of the same compound?
**A.** 1.56 µg/mL (≈ 0.788 µM)

**Q.** And the MIC [8]?
**A.** 12.5 µg/mL (≈ 6.31 µM)

**Q.** What does the source list for `CCCCCCCCCC(=O)N[C@@H](Cc1c[nH]c2ccccc12)C(=O)N[C@H](CC(N)=O)C(=O)N[C@@H](CCO)C(=O)N[C@@H]1C(=O)NCC(=O)N[C@@H](CCCNCc2ccc(C(=O)N3CCN(c4ccccc4)CC3)cc2)C(=O)N[C@@H](CC(=O)O)C(=O)N[C@H](C)C(=O)N[C@@H](CC(=O)O)C(=O)NCC(=O)N[C@H](CO)C(=O)N[C@@H]([C@H](C)CC(=O)O)C(=O)N[C@@H](CC(=O)c2ccccc2N)C(=O)O[C@@H]1C`?
**A.** MIC [1]: 1.56 µg/mL (≈ 0.828 µM); MIC [2]: 6.25 µg/mL (≈ 3.32 µM); MIC [3]: 6.25 µg/mL (≈ 3.32 µM); MIC [4]: 6.25 µg/mL (≈ 3.32 µM); MIC [5]: 0.78 µg/mL (≈ 0.414 µM); MIC [6]: 0.78 µg/mL (≈ 0.414 µM); MIC [7]: 3.13 µg/mL (≈ 1.66 µM); MIC [8]: 1.56 µg/mL (≈ 0.828 µM)

Source: ChEMBL document CHEMBL1136464, “Array synthesis of novel lipodepsipeptide” (Bioorg Med Chem Lett, 2003)
